For test [1], the target named is T1, Mitogen-activated protein kinase; ERK1/ERK2 (Homo sapiens) (UniProt P27361+P28482). The experiment in a line: Inhibition of ERK1/2 in human UPF7U cells assessed as reduction in ERK1/2 phosphorylation at 0.125 to 1 uM measured after 24 hrs by western blot assay. Type of test: cell-based. The settings on record: dose 0.125-1 µM.
For test [2], the target named is T1, Mitogen-activated protein kinase; ERK1/ERK2 (Homo sapiens). The test can be described thus: Inhibition of ERK1/2 in human Ramos cells assessed as reduction in ERK1/2 phosphorylation at 0.125 to 1 uM measured after 24 hrs by western blot assay. The settings on record: dose 0.125-1 µM. The format is cell-based. For orientation: Immunoblotting shows a protein as a band on a membrane.

The target in test [3] is Tyrosine-protein kinase ABL1 (Homo sapiens) (UniProt P00519). The test can be described thus: Inhibition of Abl (unknown origin) expressed in Sf9 cells assessed as residual activity using GGEAIYAAPFKK peptide as substrate in presence of ATP and Ci(gamma33-P)ATP at 1 uM measured by microplate reader.
Tyrosine-protein kinase ABL1 (Homo sapiens), sequence (P00519 whole entry, the tested form may be a part): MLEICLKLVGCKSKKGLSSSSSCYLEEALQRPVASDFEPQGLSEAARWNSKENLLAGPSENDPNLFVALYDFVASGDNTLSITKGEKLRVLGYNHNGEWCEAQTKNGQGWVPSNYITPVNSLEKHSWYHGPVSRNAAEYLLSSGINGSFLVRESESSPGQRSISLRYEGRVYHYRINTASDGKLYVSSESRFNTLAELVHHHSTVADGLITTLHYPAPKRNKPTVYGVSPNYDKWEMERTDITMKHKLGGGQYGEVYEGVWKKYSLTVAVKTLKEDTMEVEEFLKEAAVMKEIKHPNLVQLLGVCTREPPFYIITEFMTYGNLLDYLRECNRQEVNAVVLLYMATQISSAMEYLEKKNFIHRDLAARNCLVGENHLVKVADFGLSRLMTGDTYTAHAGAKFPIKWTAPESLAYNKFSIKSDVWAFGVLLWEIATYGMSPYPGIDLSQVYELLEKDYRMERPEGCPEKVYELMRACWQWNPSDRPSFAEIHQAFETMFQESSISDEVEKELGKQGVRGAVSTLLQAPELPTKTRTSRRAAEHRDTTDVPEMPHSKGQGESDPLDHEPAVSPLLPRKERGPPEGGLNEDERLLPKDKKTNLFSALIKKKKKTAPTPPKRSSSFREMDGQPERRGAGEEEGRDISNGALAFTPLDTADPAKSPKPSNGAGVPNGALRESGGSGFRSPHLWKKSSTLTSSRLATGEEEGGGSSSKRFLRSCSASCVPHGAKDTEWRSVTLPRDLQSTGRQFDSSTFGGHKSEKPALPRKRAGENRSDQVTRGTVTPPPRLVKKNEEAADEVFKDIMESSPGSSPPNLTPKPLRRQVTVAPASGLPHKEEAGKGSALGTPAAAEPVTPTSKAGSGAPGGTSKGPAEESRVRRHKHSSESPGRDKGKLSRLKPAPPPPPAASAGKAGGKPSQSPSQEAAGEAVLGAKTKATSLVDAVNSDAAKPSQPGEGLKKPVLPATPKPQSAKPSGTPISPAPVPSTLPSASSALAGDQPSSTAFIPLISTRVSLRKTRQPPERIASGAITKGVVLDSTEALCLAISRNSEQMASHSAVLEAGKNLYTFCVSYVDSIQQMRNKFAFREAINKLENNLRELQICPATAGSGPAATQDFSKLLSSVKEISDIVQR
The target of test [4] is Tyrosine-protein kinase SYK (Homo sapiens) (UniProt P43405). The test can be described thus: Inhibition of human recombinant GST-tagged SYK (M1 to N635 residues) assessed as residual activity using poly (Glu,Tyr) as substrate in presence of ATP and Ci(gamma33-P) ATP at 1 uM measured by microplate reader assay.
For test [5], the target named is Cyclin-dependent kinase 2 (Homo sapiens) (UniProt P24941). The test can be described thus: Inhibition of GST-tagged CDK2/cyclinE (unknown origin) expressed in Sf9 cells assessed as residual activity using histone H1 as substrate in presence of ATP and Ci(gamma33-P) ATP at 1 uM measured by microplate reader assay.
Test [6] concerns the target T1, Mitogen-activated protein kinase; ERK1/ERK2 (Homo sapiens). The experiment in a line: Inhibition of ERK1/2 in human Ramos cells assessed as reduction in ERK1/2 phosphorylation at 1 to 5 uM measured after 24 hrs by western blot assay. The format is cell-based. The settings on record: dose 1-5 µM.
In test [7] the target is T2, Tyrosine-protein kinase BTK (Homo sapiens, UniProt Q06187). The experiment in a line: Inhibition of BTK in human Ramos cells assessed as reduction of IgM stimulated BTK ([…]) phosphorylation at 1 to 5 uM measured after 24 hrs by western blot assay. Type of test: cell-based. The following applies: dose 1-5 µM.
T2 sequence (Q06187 whole entry): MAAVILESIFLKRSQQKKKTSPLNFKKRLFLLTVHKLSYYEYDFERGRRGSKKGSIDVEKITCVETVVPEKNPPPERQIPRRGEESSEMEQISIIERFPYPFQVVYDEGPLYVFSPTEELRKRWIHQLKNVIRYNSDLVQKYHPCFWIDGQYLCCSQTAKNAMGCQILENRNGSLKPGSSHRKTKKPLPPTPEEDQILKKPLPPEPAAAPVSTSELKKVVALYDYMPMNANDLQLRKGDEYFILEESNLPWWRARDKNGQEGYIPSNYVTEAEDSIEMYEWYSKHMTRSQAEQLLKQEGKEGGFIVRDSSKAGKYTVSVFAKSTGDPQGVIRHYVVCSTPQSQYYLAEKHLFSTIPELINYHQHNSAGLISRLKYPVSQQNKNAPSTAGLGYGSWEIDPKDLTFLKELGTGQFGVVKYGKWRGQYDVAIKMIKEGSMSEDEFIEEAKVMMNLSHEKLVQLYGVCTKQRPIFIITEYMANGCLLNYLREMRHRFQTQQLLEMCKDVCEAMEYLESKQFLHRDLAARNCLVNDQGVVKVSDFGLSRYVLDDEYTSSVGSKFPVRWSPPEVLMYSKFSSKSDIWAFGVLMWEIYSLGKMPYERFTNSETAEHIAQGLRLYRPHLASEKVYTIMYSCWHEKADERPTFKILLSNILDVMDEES
The subject of the next test is Rec1. The test can be described thus: Growth inhibition of human REC1 cells assessed as inhibition of cell growth measured after 72 hrs by resazurin dye based assay. The format is functional. The settings on record: Homo sapiens, Rec1. In general terms: Resazurin is reduced to fluorescent resorufin, in cell work by metabolically active cells.
Test [8] deals with T2, Tyrosine-protein kinase BTK. The experiment in a line: Inhibition of human BTK using poly (Glu,Tyr) as substrate in presence of ATP and Ci(gamma33-P) ATP measured by microplate reader assay.
Test [9] has the same target. The test can be described thus: Inhibition of BTK in human Ramos cells assessed as reduction of IgM stimulated PLCgamma2 (Y1217) phosphorylation at 1 to 5 uM measured after 24 hrs by western blot assay. Type of test: cell-based. The settings on record: dose 1-5 µM.
A short description of test [10]: Growth inhibition of human patient derived UPF7U cells assessed as inhibition of cell growth measured after 72 hrs by resazurin dye based assay. Type of test: functional. The following applies: Homo sapiens, UPF7U.
Test [11] in a line: Growth inhibition of human patient derived UPF1H cells assessed as inhibition of cell growth measured after 72 hrs by resazurin dye based assay. Type of test: functional. The following applies: Homo sapiens, UPF1H.
Test [12] concerns the target T2, Tyrosine-protein kinase BTK. The test can be described thus: Inhibition of human BTK assessed as residual activity using poly (Glu,Tyr) as substrate in presence of ATP and Ci(gamma33-P) ATP at 1 uM measured by microplate reader assay.
For test [13], the target named is Receptor-type tyrosine-protein kinase FLT3 (Homo sapiens) (UniProt P36888). The experiment in a line: Inhibition of human recombinant […] N-terminal GST-tagged FLT3 (R571 to S993 residues) assessed as residual activity using poly (Ala, Glu, Lys, Tyr) hydrobromide as substrate in presence of ATP and Ci(gamma33-P) ATP at 1 uM measured by microplate reader assay.
Receptor-type tyrosine-protein kinase FLT3 (Homo sapiens), sequence (P36888 whole entry, the tested form may be a part): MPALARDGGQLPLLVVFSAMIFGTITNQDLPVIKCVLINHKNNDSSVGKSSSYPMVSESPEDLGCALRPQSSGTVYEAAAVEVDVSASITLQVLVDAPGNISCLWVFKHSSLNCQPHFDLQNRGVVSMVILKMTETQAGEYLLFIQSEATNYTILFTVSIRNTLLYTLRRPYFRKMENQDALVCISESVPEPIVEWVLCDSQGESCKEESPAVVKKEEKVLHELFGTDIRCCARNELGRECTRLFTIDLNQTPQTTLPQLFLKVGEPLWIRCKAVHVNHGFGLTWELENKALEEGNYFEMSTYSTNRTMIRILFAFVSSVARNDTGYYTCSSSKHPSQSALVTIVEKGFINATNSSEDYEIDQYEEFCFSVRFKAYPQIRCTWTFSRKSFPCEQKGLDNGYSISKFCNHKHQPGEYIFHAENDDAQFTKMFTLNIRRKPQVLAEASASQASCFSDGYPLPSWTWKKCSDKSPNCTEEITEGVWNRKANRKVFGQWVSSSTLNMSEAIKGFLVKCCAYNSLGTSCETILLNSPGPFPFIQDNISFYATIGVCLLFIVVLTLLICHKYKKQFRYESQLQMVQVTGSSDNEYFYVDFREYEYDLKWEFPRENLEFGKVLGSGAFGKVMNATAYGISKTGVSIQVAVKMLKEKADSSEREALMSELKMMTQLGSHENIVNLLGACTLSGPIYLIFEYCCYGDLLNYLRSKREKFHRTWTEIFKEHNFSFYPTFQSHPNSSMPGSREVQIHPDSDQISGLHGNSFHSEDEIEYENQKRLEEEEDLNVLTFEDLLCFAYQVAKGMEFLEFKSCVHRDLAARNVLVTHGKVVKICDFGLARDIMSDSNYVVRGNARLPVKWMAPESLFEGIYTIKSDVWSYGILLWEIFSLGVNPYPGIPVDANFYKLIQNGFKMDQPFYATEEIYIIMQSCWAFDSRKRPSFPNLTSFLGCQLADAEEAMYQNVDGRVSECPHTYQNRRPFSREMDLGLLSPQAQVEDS

The next test has as its system K562. The experiment in a line: Growth inhibition of human K562 cells assessed as inhibition of cell growth measured after 72 hrs by resazurin dye based assay. Type of test: functional. The following applies: Homo sapiens, K562.
The target in test [14] is Tyrosine-protein kinase Fyn (Homo sapiens) (UniProt P06241). The test can be described thus: Inhibition of human recombinant full length GST-tagged FYN (M1 to L537 residues) assessed as residual activity using poly (Glu,Tyr) as substrate in presence of ATP and Ci(gamma33-P) ATP at 1 uM measured by microplate reader assay.
Tyrosine-protein kinase Fyn (Homo sapiens), sequence (P06241 2-537 limits assumed): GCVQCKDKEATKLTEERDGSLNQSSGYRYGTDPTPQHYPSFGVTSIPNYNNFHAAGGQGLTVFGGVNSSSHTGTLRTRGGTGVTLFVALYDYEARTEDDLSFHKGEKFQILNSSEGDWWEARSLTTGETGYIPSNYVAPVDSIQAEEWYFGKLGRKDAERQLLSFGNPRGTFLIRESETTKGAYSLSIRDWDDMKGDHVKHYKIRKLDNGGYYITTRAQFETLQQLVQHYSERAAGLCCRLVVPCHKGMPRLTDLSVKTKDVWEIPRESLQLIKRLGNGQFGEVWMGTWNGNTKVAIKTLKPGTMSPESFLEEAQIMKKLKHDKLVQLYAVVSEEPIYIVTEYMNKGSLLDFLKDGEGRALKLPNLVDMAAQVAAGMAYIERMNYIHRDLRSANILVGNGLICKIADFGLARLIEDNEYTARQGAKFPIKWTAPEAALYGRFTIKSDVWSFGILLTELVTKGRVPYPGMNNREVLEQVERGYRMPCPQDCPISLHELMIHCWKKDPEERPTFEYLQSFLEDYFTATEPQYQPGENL
Another test concerns Ramos. The test can be described thus: Growth inhibition of human Ramos cells assessed as inhibition of cell growth measured after 72 hrs by resazurin dye based assay. The format is functional. The following applies: Homo sapiens, Ramos.
In test [15] the target is T2, Tyrosine-protein kinase BTK. The test can be described thus: Inhibition of BTK in human UPF7U cells assessed as reduction of IgM stimulated PLCgamma1 (Y783) phosphorylation at 0.125 to 1 uM measured after 24 hrs by western blot assay relative to Ibrutinib. Type of test: cell-based. The settings on record: dose 0.125-1 µM.
Test [16] shares this target. The experiment in a line: Inhibition of BTK in human Ramos cells assessed as reduction of IgM stimulated PLCgamma2 (Y1217) phosphorylation at 0.125 to 1 uM measured after 24 hrs by western blot assay relative to Ibrutinib. The format is cell-based. The following applies: dose 0.125-1 µM.
Test [17] addresses Proto-oncogene tyrosine-protein kinase Src (Homo sapiens) (UniProt P12931). The experiment in a line: Inhibition of recombinant SRC (unknown origin) assessed as residual activity at 1 uM.
For test [18], the target named is Tyrosine-protein kinase Lck (Homo sapiens) (UniProt P06239). The test can be described thus: Inhibition of recombinant LCK (unknown origin) assessed as residual activity at 1 uM.
Tyrosine-protein kinase Lck (Homo sapiens), sequence (P06239 2-509 limits assumed): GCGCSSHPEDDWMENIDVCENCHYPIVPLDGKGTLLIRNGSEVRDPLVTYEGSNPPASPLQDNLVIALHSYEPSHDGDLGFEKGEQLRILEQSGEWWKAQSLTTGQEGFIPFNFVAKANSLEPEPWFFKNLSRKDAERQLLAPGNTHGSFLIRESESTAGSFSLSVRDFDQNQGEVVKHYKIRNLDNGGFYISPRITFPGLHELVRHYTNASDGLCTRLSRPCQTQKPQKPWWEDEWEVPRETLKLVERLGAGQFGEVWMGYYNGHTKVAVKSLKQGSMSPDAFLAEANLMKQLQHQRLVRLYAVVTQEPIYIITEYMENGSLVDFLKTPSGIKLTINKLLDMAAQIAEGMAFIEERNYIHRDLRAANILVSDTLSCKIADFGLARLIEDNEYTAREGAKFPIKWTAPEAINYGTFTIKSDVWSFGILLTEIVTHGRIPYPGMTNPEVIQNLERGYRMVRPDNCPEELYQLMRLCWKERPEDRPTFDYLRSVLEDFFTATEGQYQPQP
Test [19] addresses T2, Tyrosine-protein kinase BTK. The experiment in a line: Inhibition of BTK in human Ramos cells assessed as reduction of IgM stimulated BTK phosphorylation measured after 24 hrs by western blot assay. The format is cell-based. The settings on record: dose 0.125-1 µM.
Test [20] has the same target. The experiment in a line: Inhibition of BTK in human UPF7U cells assessed as reduction of IgM stimulated BTK phosphorylation measured after 24 hrs by western blot assay. Type of test: cell-based. The settings on record: dose 0.125-1 µM.
Test [21] has the same target. The experiment in a line: Inhibition of BTK in human UPF7U cells assessed as reduction of IgM stimulated PLCgamma2 (Y1217) phosphorylation at 0.125 to 1 uM measured after 24 hrs by western blot assay relative to Ibrutinib. The format is cell-based. The following applies: dose 0.125-1 µM.
Test [22] shares this target. The test can be described thus: Inhibition of BTK in human Ramos cells assessed as reduction of IgM stimulated PLCgamma1 (Y783) phosphorylation at 0.125 to 1 uM measured after 24 hrs by western blot assay relative to Ibrutinib. Type of test: cell-based. The following applies: dose 0.125-1 µM.

This is an account of results in ChEMBL document CHEMBL4819006, “1,4,6-Trisubstituted imidazo[4,5-c]pyridines as inhibitors of Bruton's tyrosine kinase” (Eur J Med Chem, 2021).

As usually defined, the GI50 is the concentration that inhibits growth by half. For orientation: pIC50 means −log10 of the IC50, conventionally taken in molar units.

pIC50: −log10 of the molar value. Active and inactive are the calls of the source. The rule behind the calls is not given here. Bounds are passed on as bounds.

T1 sequence (P27361 whole entry, looked up): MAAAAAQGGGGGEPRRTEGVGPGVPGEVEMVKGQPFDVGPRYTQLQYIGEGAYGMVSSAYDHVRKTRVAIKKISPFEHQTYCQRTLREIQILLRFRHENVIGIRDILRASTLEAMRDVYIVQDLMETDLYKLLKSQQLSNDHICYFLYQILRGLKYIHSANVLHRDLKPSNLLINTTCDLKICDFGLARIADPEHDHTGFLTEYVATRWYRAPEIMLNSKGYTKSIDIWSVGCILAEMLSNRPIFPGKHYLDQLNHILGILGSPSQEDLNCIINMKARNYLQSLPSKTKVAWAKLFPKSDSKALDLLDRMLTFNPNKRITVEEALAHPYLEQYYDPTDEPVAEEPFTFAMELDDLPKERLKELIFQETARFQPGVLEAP
T1 sequence (P28482 whole entry, looked up): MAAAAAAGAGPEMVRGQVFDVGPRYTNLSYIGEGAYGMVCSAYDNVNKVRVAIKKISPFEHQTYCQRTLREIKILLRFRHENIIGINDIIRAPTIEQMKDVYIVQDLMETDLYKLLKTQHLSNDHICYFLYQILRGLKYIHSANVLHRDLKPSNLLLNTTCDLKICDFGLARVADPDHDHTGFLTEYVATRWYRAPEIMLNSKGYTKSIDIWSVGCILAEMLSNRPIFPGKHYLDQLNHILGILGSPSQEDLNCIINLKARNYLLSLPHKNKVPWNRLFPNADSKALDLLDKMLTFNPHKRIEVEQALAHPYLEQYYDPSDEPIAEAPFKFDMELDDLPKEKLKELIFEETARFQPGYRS

Turning to `c1cn2cc(-c3ccc4cn[nH]c4c3)nc(Nc3ccc(N4CCOCC4)cc3)c2n1`, the inhibition result in test [1] and in [2] was “Active” in each case.

On to `Cc1c(NC(=O)c2ccc(C(C)(C)C)cc2)cccc1-c1cc2[nH]cnc2c(Nc2ccc(C(=O)N3CCOCC3)cc2)n1`, for which the Activity was greater than 100% in [3]; 80.3% in test [4]; 92.1% in [5]; 18.4% in [12]; 51.9% in test [13]; 80.6% in test [14]. The inhibition entry in [6] was “inactive”. The inhibition entry in test [7] and in test [9] was “Active” throughout. The GI50 in the test with Rec1 stood at 24 µM; in [10] it was 20.6 µM; in [11], 12.2 µM; in the test with K562 it was 32.7 µM; with Ramos, 16.5 µM. The pIC50 in test [8] is 7.60.

`CC(C)(C)c1ccc(C(=O)Nc2cccc(-c3cc4[nH]cnc4c(Nc4ccc(C(=O)N5CCOCC5)cc4)n3)c2)cc1`: the Activity is 95.9% in test [3]; 71.4% in test [4]; 98.7% in test [5]; 14.7% in [12]; greater than 100% in [13]; 86.4% in test [14]. Further, the concentration for 50% growth inhibition (GI50) came out at 6 µM with Rec1; 5.5 µM in test [10]; 1 µM in [11]; 2.3 µM in the test on K562; 1.2 µM in the test with Ramos. In addition, the inhibition result in [15], in [16], in [17], in test [18], in test [21] and in [22] was “Active” in each case. In addition, the pIC50 in [8] was 7.57. For the same molecule, the inhibition result in test [19] and in [20] was “Dose-Dependent Effect” in each case.
